Assay results from patent US10322131B2, “Hydroxyacid derivatives, a process for their preparation and pharmaceutical compositions containing them” (LES LABORATOIRES SERVIER, priority 2015, dated 2019).
Structures can show the parent of a compound that is named as a salt.

Legend:
H929 cells = experiment: In vitro cytotoxicity (MTT) on H929 multiple myeloma tumour line; assay type: cell-based; details: Microculture Tetrazolium Assay
Protocol: The cytotoxicity studies were carried out on the H929 multiple myeloma tumour line.
The cells are distributed onto microplates and exposed to the test compounds for 48 hours.
The cell viability is then quantified by a colorimetric assay, the Microculture Tetrazolium Assay (Cancer Res., 1987, 47, 939-942).

Mcl-1 protein = Mcl-1 protein (Homo sapiens, UniProt Q07820); experiment: Inhibition of Mcl-1 by the fluorescence polarisation technique; assay type: binding; details: fluorescence polarisation test; Fluorescein labelled ligand 1 nM, Mcl-1 protein 5 nM, ~2 hours at r.t.; read-out: IC50 (M) Mcl-1 FP
Summary of the method: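 Competitive FP displacement of fluorescein-labelled peptide ligand (1 nM final) from Mcl-1 (5 nM final) in HEPES 10 mM, 150 mM NaCl, 0.05% Tween 20, pH 7.4, 5% DMSO final. Read after ~2 h at r.t.; IC50 from 11-point 4-parameter logistic fit of % mP reduction.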

[1] = Homo sapiens, NCI-H929, exposed 48 hours

Sequence of Mcl-1 protein (Q07820 whole entry): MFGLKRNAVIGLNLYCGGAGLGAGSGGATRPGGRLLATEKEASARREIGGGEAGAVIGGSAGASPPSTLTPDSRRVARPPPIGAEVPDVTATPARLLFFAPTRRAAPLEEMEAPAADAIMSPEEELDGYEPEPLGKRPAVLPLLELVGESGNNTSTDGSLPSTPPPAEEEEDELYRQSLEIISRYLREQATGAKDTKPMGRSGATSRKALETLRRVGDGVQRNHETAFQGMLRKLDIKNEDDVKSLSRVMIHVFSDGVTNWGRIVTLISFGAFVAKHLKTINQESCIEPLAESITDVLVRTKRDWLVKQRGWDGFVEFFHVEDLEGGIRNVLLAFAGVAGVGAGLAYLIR

| Structure (SMILES) | IC50 (H929 cells; [1]) [µM] | IC50 (Mcl-1 protein) [M] | IC50 (H929 cells; exposed 48 hours) [µM] |
| --- | --- | --- | --- |
| Cc1c(-c2c(-c3ccc(F)cc3)sc3ncnc(OC(Cc4ccccc4OCc4ccnc(-c5cccc(COC(=O)N6CCOCCOCCOCCOCCOCC6)c5)n4)C(=O)O)c23)ccc(OCCN2CCN(C)CC2)c1Cl [Example 46, (2R)-2-{[(5Sa)-5-{3-chloro-2-methyl-4-[2-(4-methylpiperazin-1-yl)ethoxy]phenyl}-6-(4-fluorophenyl)thieno[2,3-d]pyrimidin-4-yl]oxy}-3-(2-{[2-(3-{[(1,4,7,10,13-pentaoxa-16-azacyclooctadecan-16-ylcarbonyl)oxy]methyl}phenyl)pyrimidin-4-yl]methoxy}phenyl)propanoic acid] | 0.0234 | 2.55e-09 |  |
| Cc1c(-c2c(-c3ccc(F)cc3)sc3ncnc(OC(Cc4ccccc4OCc4ccnc(-c5cccc(OCC(O)CO)c5)n4)C(=O)O)c23)ccc(OCCN2CCN(C)CC2)c1Cl [Example 47, (2R)-2-{[(5Sa)-5-{3-chloro-2-methyl-4-[2-(4-methylpiperazin-1-yl)ethoxy]phenyl}-6-(4-fluorophenyl)thieno[2,3-d]pyrimidin-4-yl]oxy}-3-[2-({2-[3-(2,3-dihydroxypropoxy)phenyl]pyrimidin-4-yl}methoxy)phenyl]propanoic acid] | 0.0182 | 4.05e-09 |  |
| Cc1c(-c2c(-c3ccc(F)cc3)sc3ncnc(OC(Cc4ccccc4OCc4ccnc(-c5ccc(OP(=O)(O)O)cc5)n4)C(=O)O)c23)ccc(OCCN2CCN(C)CC2)c1Cl [Example 57, 4-[4-({2-[(2R)-2-carboxy-2-{[(5Sa)-5-{3-chloro-2-methyl-4-[2-(4-methylpiperazin-1 yl)ethoxy]phenyl}-6-(4-fluorophehnyl)thieno[2,3-d]pyrimidin-4-yl]oxy}ethyl]phenoxy}methyl)pyrimidin-2-yl]phenyl phosphate disodium salt] |  | 4.6e-09 | 0.0227 |
